Measured values published in patent publication US4250259A, “Microbiological production of ketones from C3 -C6 secondary alcohols” (priority 1979, dated 1981).
“Also recorded” adds a separate entry of the source.

Key:
[1] = test system: Methylosinus trichosporium OB3b (NRRL B-11,196); assay: sec-alcohols to ketones by resting cell suspensions; type: cell-based
Protocol: (§1) The pH of the nutrient medium was adjusted to 7.0 by the addition of acid or base and 50 ml. samples of the nutrient medium were charged into a plurality of 300 ml. shaker flasks. The shaker flasks were inoculated with an inoculating loop of cells from an agar plate containing homogeneous colonies of the microorganisms on the plate (the purity of the isolates was confirmed by microscopic examination). The isolates had been maintained on methanol (0.4% V/V) agar plates or on agar plates under an atmosphere of methane and air having a 1:1 V/V gas ratio which had been transferred every two weeks. For growth on methanol, the medium was supplemented with 0.4% methanol. For growth on methane, the gaseous phase of the inoculated flasks was replaced with a gas mixture comprised of methane and air having a ratio of 1:1 on a V/V basis. The inoculated flasks were sealed air-tight and were incubated on a rotary shaker of orbital radius 2.5 cm. at 250 rpm and at 30° C. for two days until turbidity in the medium had developed. The cells were harvested by centrifugation at 10,000×g. at 4° C. for 30 minutes. The cell pellet was washed twice with a 0.05 M phosphate buffer at a pH of 7.0 (containing 0.02 M MgCl2). The washed cells were then suspended in a 0.05 M phosphate buffer at pH 7.0.
(§2) A 0.5 ml. sample of each washed cell suspension (2 mg. cells) was put into 10 ml. vials at 4° C. which were sealed with a rubber cap. The gaseous phase of the vials was removed with vacuum and then was replaced with a gas mixture of the substrate reactant (i.e., alkane or secondary alcohol) and oxygen at a 1:1 V/V ratio. (In the case of a liquid substrate, i.e., secondary alcohol, 10 μl of the substrate was put in the 10 ml. vials). […] Samples of product (1-3 μl) were withdrawn periodically with a microsyringe and the products were analyzed by gas chromatography (ionization flame detector column).
(§3) The procedure in Example 1 was repeated wherein a plurality of the methane-utilizing methylotrophic microorganisms were each grown aerobically in a nutrient medium containing methane as the alcohol dehydrogenase enzyme inducer and as the major carbon and energy source for growth. The cells were harvested and washed as described in Example 1. The resting microbial cells of the induced methane-grown methane-utilizing methylotrophic microorganisms were then contacted with C3 -C6 secondary alcohols in a buffered solution by the procedure of Example 1.
(§4) In this example, the procedure in Example 1 was repeated except that a plurality of methane-utilizing methylotrophic microorganisms were each aerobically grown in a methanol-containing nutrient medium instead of a methane-containing medium. The nutrients in the medium were the same as indicated in Example 1 except that 0.4% V/V methanol was used as the alcohol dehydrogenase inducer and major source of carbon and energy for growth. Following growth, the cells were harvested and washed as described in Example 1.
(§5) The resting cells of the induced methanol-grown methylotrophic microorganisms were then contacted with secondary alcohols in a buffered solution by the procedure described in Example 1.
(§6) The procedure in Example 1 was repeated except that the methylotrophic microorganisms were each aerobically grown in an alcohol dehydrogenase-inducing growth medium containing methylamine or methyl formate as the alcohol dehydrogenase enzyme inducer and growth substrate instead of methane. The nutrients in the medium were the same as indicated in Example 1 except that 0.4% V/V of the alcohol dehydrogenase-inducer growth substrate was used as the major carbon and energy source. The cells were harvested and washed as described in Example 1. The resting microbial cells were then contacted with C3 -C6 secondary alcohols in a buffered solution by the conversion procedure of Example 1.

[2] = test system: Methylobacterium organophilum XX (ATCC 27886); assay: as above; type: cell-based
Protocol: as §1, §2, §3, §4, §5, §6

[3] = test system: cell extracts (NAD+-dependent secondary alcohol dehydrogenase); assay: sec-alcohols to methyl ketones by cell extracts of yeasts, gas chromatography; type: biochemical, Pichia sp. NRRL-Y-11,328; conditions: grown on methanol
[4] = test system: secondary alcohol dehydrogenase (SADH), cell-free soluble extract; assay: oxidation of sec-alcohols by cell-free soluble extracts; type: biochemical, Methylobacterium organophilum CRL 26 (NRRL B-11,222); conditions: for Oxidation Rate, sec-alcohol to corresponding ketone: soluble crude extract, grown on methanol
Protocol: (§7) To prepare the cell-free secondary alcohol dehydrogenase (SADH) system, the washed cells were disrupted with a Wave Energy Ultrasonic Oscillator, Model W201 (Wave Energy System, Inc., Newtown, Pa.) and centrifuged at 20,000×g. for 30 minutes. […] The enzyme activity was measured with a fluorescence spectrophotometer (Perkin Elmer, Model MPF 44A) by following the formation of reduced NAD (EX 340 nm, Em 460 nm). The formation of reduced NAD was also followed with an absorption spectrophotometer at 340 nm. The assay system (3 ml.) contained: potassium phosphate buffer pH 7.0; 150 μmol.; NAD 1 μmol.; a given amount of enzyme preparation; and secondary alcohol 10 μmol. The reaction was started by the addition of substrate. One unit of enzyme activity represents the reduction of one μmole NAD per minute. Protein concentrations were determined by the Lowry method (J. Biol. Chem., 193: 255-275 (1951)).
(§8) The experimental procedure for the tests reported in Table VIII were as follows: 1 mg protein of crude extract was added into a 0.5 ml. 0.05 M phosphate buffer (pH 7.0) in a 10-ml. vial. […] The reaction mixture was incubated at 30° C. on a water bath. A 3 μl sample was removed with a syringe at 15 min. of incubation and was assayed with g.l.c. Catalytic activity was also assayed by fluorescence spectrophotometry.

[5] = test system: secondary alcohol dehydrogenase (SADH), cell-free soluble extract; assay: as above; type: biochemical, Methylosinus trichosporium OB3b (NRRL B-11,196); conditions: for Oxidation Rate, sec-alcohol to corresponding ketone: soluble crude extract, grown on methanol
Protocol: as §7, §8

[6] = test system: cell extracts (NAD+-dependent secondary alcohol dehydrogenase); assay: sec-alcohols to methyl ketones by cell extracts of yeasts, gas chromatography; type: biochemical, Kloeckera sp. strain A2 NRRL-Y-11,420; conditions: grown on methanol
[7] = test system: purified secondary alcohol dehydrogenase; assay: substrate specificity, electron acceptor and stoichiometry of purified yeast SADH; conditions: for oxidation by the purified yeast secondary alcohol dehydrogenase: examined spectrophotometrically; for Product Formed: stoichiometry, Acetone from Isopropanol, 2-Butanone from 2-Butanol, gas chromatography
[8] = test system: cell suspensions of C1-utilizers; assay: studies on production of 2-butanone from 2-butanol by cell suspensions of the strains tested; type: cell-based; conditions: for rate of oxidation of secondary alcohols by strains of C1-utilizers: cell suspensions
Source text: The following summarizes tests conducted on the optimal conditions for the production of methyl ketones from C3 -C6 sec. alcohols.
The substrate specificity for the oxidation of C3 -C6 secondary alcohols by the strains of C1 -utilizers was studied.

SMILES | Conversion Rates, sec-alcohol to corresponding ketone ([1]; cells grown on methane) | Conversion Rates, sec-alcohol to corresponding ketone ([1]; cells grown on methanol) | Conversion Rates, sec-alcohol to corresponding ketone ([1]; methyl formate-grown cells) | Conversion Rates, sec-alcohol to corresponding ketone ([2]; cells grown on methane) | Conversion Rates, sec-alcohol to corresponding ketone ([2]; cells grown on methanol) | Conversion Rates, sec-alcohol to corresponding ketone ([2]; methyl formate-grown cells) | Conversion Rate, sec-alcohol to methyl ketone [3] | Oxidation Rate, sec-alcohol to corresponding ketone [4] | Oxidation Rate, sec-alcohol to corresponding ketone [5] | Conversion Rate, sec-alcohol to methyl ketone [6] | oxidation by the purified yeast secondary alcohol dehydrogenase [7] | Product Formed [7] | rate of oxidation of secondary alcohols by strains of C1-utilizers [8] | also measured
CCC(C)O (centres unmarked) [2-Butanol, 2-butanol] | 3.7 μmoles/hr/mg protein | 4.1 μn moles/hr/mg protein | 4.5 μmoles/hr/mg protein | 2.5 μmoles/hr/mg protein | 2.8 μn moles/hr/mg protein | 3.5 μmoles/hr/mg protein | 6.2 μmoles/hr/mg Protein | 2.5 nmole/min/mg protein | 2.4 nmole/min/mg protein | 5.9 μmoles/hr/mg Protein | catalyzed the oxidation | 5.7 µmol | highest rate; also recorded: higher rates | Conversion Rate, 2-butanol to 2-butanone ([4]; Growth Substrate CH3 NH2): 2.0 nmoles/min/mg protein; Conversion Rate, 2-butanol to 2-butanone ([4]; Growth Substrate CH3 OH): 2.5 nmoles/min/mg protein; Conversion Rate, 2-butanol to 2-butanone ([4]; Growth Substrate CH4): 1.8 nmoles/min/mg protein; Conversion Rate, 2-butanol to 2-butanone ([4]; Growth Substrate HCOOCH3): 2.0 nmoles/min/mg protein; Conversion Rate, 2-butanol to 2-butanone ([5]; Growth Substrate CH3 NH2): 2.5 nmoles/min/mg protein; Conversion Rate, 2-butanol to 2-butanone ([5]; Growth Substrate CH3 OH): 2.4 nmoles/min/mg protein; Conversion Rate, 2-butanol to 2-butanone ([5]; Growth Substrate CH4): 4.5 nmoles/min/mg protein; Conversion Rate, 2-butanol to 2-butanone ([5]; Growth Substrate HCOOCH3): 2.0 nmoles/min/mg protein; 2-butanol concentration supporting maximum 2-butanone production ([8]; cell suspensions of yeast and Pseudomonas sp. ATCC 21,439, 35 min. incubation): about 50 μmoles
CCCCC(C)O (centres unmarked) [2-Hexanol, 2-hexanol] | 0.07 μmoles/hr/mg protein | 0.9 μn moles/hr/mg protein | 0.72 μmoles/hr/mg protein | 0.12 μmoles/hr/mg protein | 1.1 μn moles/hr/mg protein | 0.70 μmoles/hr/mg protein | 0.60 μmoles/hr/mg Protein | 0 nmole/min/mg protein | 0 nmole/min/mg protein | 0.25 μmoles/hr/mg Protein | catalyzed the oxidation | – | much slower rate | –
CCCC(C)O (centres unmarked) [2-Pentanol, 2-pentanol] | 2.7 μmoles/hr/mg protein | 2.9 μn moles/hr/mg protein | 1.5 μmoles/hr/mg protein | 0.82 μmoles/hr/mg protein | 0.9 μn moles/hr/mg protein | 1.0 μmoles/hr/mg protein | 1.2 μmoles/hr/mg Protein | 0.1 nmole/min/mg protein | 0.1 nmole/min/mg protein | 1.2 μmoles/hr/mg Protein | catalyzed the oxidation | – | much slower rate | –
CC(C)O [2-Propanol, 2-propanol] | 0.25 μmoles/hr/mg protein | 0.30 μn moles/hr/mg protein | 0.95 μmoles/hr/mg protein | 0.5 μmoles/hr/mg protein | 0.70 μn moles/hr/mg protein | 0.48 μmoles/hr/mg protein | 5.5 μmoles/hr/mg Protein | 2.1 nmole/min/mg protein | 2.0 nmole/min/mg protein | 4.8 μmoles/hr/mg Protein | catalyzed the oxidation | 5.5 µmol | higher rates | –
